# Results reported in patent US20120128665A1, “PRESELECTION OF SUBJECTS FOR THERAPEUTIC TREATMENT BASED ON HYPOXIC STATUS” (SYNTA PHARMACEUTICALS CORP., priority 2010, published 2012).
# Where two headings read alike, the source gives them in different places.
# Tests used:
# [1] = system: advanced pancreatic cancer; conditions: Phase II, combination with Gemcitabine; cited from earlier work
# [2] = system: breast cancer; conditions: xenograft models; cited from earlier work
# [3] = system: previously treated metastatic renal cell carcinoma (mRCC); conditions: Phase III, 2010; cited from earlier work
# [4] = system: advanced pancreatic cancer; conditions: Phase III, combination with Gemcitabine; cited from earlier work
# [5] = system: phosphorylated RPS6 (ribosomal protein S6); conditions: TSC1-deficient cells; cited from earlier work
# [6] = target: mTORC1 (Homo sapiens, UniProt P42345); conditions: immune-kinase assays; cited from earlier work
# [7] = system: HCT116 tumors vs 786O tumors; assay: response of hypoxic vs non-hypoxic tumors; assay type: in vivo, nude mice; conditions: doses as in the 3rd table
# [8] = target: mTORC2 (Homo sapiens, UniProt P42345); conditions: immune-kinase assays; cited from earlier work
# [9] = system: pancreatic cancer; conditions: PTK787 and gemcitabine, cited from earlier work
# [10] = system: HCT116 human colon carcinoma xenograft; assay: HCT116 xenograft model (hypoxic tumor); assay type: in vivo, nude mice
# Experimental: (§1) Human tumor cell lines HCT116 (ATCC #CRL-247; Schroy PC, et al. Cancer 76:201-209, 1995) and 786-O (ATCC #CRL-1932; Williams RD, et al. In Vitro 12:623-627, 1976), were obtained from the American Type Culture Collection (Manassus, Va., USA) were cultured using routine methods until a sufficient number of cells were obtained for implantation. Studies were conducted on animals between 7 and 12 weeks of age at implantation. To implant HCT116 tumor cells into nude mice, the cells were trypsinized, washed in PBS and resuspended at a concentration of 75×10^6 cells/ml in McCoy's modified medium with 50% of BD Matrigel® Basement Membrane Matrix (BD Biosciences®, Bedford, Mass., USA). To implant 786-O tumor cells into nude mice, the cells were trypsinized as above, washed in PBS and resuspended at a concentration of 75×10^6 cells/ml in RPMI 1640 medium with 50% of BD Matrigel® Basement Membrane Matrix. Using a 27 gauge needle and 1 cc syringe, 0.1 ml of the cell suspension was injected into the corpus adiposum of nude mice. The corpus adiposum is a fat body located in the ventral abdominal vicera in the right quadrant of the abdomen at the juncture of the os coxae (pelvic bone) and the os femoris (femur). The location permits palpation and measurement of the tumors using external calipers. Tumor volumes (V) were calculated by caliper measurement of the width (W), length (L) and thickness (T) of tumors using the following formula: V=0.5236×(L×W×T). Animals were randomized into treatment groups so that the average tumor volumes of each group were similar at the start of dosing.
# (§2) A tumor model in which the tumors have relatively high and low levels of LDH5, indicating high and low levels of hypoxia, using human tumor cell lines HCT116 and 786-O was established as set forth in the previous example.
# (§3) As above, HCT116 and 786-O cells were cultured and implanted into nude mice using the methods in the previous example. Tumor growth was measured using calipers. Prior to treatment with the various agents, tumors were permitted to develop in vivo until they reached approximately 150 mm^3 in volume, which typically required 2-3 weeks following implantation. Animals were randomized into treatment groups so that the average tumor volumes of each group were similar at the start of dosing.
# (§4) Tumor volume was monitored throughout the course of the study, until up to about 40 days from the date of tumor implantation. The exact number of days of the study depended on a number of factors including, for example, the number of days from implantation for the tumors to reach the desired volume.
# [11] = system: mCRC pretreated with 5-FU/irinotecan; conditions: cited from earlier work
# [12] = system: metastatic colorectal cancer (mCRC); conditions: P <0.001, cited from earlier work
# [13] = system: 786-O human renal carcinoma xenograft; assay: 786-O xenograft model (non-hypoxic tumor); assay type: in vivo, nude mice
# Experimental: as §1, §2, §3, §4
# [14] = system: metastatic colorectal cancer (mCRC); conditions: cited from earlier work
# [15] = system: locally advanced or metastatic NSCLC after failure of at least one chemotherapy regimen; conditions: erlotinib 150 mg orally once daily; cited from earlier work
# [16] = system: locally advanced or metastatic NSCLC; conditions: maintenance, cited from earlier work
# [17] = system: locally advanced, unresectable or metastatic pancreatic cancer; conditions: 100 mg cohort, erlotinib arm = plus gemcitabine, comparator gemcitabine alone, cited from earlier work; for progression free survival: p=0.006; for survival: p=0.028
# [18] = target: JAK2V617F (Homo sapiens, UniProt O60674, V617F); conditions: cited from earlier work
# JAK2V617F, sequence (O60674 whole entry V617F): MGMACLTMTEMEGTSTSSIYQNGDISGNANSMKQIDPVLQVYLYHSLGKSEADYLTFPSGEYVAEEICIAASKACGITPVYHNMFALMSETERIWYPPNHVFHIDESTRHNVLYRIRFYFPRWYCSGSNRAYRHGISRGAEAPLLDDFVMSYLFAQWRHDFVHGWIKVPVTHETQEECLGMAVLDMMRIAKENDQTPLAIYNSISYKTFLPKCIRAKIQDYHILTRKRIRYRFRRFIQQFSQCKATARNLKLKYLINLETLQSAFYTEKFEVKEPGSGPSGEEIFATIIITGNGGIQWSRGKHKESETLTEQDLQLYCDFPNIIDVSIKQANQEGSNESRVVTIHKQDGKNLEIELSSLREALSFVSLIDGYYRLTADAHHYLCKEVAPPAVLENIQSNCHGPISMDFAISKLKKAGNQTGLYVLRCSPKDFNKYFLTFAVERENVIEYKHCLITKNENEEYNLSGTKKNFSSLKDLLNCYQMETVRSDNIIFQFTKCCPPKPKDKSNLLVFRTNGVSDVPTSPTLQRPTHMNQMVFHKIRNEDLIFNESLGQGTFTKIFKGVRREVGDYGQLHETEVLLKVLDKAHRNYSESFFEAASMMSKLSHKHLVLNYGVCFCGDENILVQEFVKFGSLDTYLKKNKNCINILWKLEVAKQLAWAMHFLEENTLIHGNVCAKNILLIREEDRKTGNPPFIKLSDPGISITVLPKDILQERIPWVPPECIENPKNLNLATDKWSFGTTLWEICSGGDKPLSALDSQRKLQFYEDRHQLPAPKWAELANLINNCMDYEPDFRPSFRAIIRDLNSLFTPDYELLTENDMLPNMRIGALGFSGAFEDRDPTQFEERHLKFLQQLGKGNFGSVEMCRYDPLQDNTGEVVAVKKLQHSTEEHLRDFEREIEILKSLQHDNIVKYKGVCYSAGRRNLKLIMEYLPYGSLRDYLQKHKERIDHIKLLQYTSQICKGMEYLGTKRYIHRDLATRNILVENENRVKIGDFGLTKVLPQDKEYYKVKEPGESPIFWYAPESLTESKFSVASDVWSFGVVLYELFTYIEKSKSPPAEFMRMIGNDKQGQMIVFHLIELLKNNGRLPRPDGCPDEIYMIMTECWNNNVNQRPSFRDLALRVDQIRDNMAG
# [19] = system: angiogenesis; conditions: mouse model; cited from earlier work
# [20] = system: human tumor xenografts; conditions: mice; cited from earlier work
# [21] = target: PDGFR-β (Homo sapiens, UniProt P09619); conditions: in vitro; cited from earlier work
# PDGFR-β, sequence (P09619 33-1106, species assumed): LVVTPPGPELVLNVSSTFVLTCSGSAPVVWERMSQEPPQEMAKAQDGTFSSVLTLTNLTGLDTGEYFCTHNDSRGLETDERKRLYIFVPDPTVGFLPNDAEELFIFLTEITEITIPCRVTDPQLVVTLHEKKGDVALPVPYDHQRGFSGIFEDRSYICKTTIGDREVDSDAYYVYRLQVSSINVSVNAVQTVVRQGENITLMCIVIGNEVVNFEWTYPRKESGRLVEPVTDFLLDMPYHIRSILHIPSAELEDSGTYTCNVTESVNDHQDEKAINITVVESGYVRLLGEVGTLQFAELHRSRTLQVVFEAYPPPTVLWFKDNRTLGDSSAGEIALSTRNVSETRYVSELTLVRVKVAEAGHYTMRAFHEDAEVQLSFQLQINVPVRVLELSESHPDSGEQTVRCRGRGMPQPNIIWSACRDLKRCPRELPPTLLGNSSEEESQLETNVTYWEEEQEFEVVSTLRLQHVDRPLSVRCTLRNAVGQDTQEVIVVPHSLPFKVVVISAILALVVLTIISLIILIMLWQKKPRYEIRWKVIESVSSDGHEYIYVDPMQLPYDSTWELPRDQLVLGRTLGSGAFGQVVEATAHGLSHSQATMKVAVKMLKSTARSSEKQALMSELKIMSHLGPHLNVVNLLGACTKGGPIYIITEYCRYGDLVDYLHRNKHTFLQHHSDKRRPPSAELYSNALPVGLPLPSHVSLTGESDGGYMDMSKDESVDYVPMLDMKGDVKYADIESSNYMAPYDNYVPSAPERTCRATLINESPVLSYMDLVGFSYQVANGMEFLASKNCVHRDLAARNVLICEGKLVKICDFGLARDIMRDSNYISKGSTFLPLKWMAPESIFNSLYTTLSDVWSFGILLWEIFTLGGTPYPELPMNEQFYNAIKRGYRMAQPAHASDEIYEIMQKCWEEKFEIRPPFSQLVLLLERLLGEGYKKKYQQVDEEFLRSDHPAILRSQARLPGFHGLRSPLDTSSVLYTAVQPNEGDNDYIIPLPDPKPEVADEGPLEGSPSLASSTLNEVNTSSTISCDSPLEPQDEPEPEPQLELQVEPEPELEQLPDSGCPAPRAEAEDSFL
# [22] = target: T1, VEGFR-2 (Mus musculus, UniProt P35918); conditions: in vivo, cited from earlier work
# T1 construct: from tissue; host or cells: mouse lungs (in vivo)
# T1 sequence (P35918 20-1345): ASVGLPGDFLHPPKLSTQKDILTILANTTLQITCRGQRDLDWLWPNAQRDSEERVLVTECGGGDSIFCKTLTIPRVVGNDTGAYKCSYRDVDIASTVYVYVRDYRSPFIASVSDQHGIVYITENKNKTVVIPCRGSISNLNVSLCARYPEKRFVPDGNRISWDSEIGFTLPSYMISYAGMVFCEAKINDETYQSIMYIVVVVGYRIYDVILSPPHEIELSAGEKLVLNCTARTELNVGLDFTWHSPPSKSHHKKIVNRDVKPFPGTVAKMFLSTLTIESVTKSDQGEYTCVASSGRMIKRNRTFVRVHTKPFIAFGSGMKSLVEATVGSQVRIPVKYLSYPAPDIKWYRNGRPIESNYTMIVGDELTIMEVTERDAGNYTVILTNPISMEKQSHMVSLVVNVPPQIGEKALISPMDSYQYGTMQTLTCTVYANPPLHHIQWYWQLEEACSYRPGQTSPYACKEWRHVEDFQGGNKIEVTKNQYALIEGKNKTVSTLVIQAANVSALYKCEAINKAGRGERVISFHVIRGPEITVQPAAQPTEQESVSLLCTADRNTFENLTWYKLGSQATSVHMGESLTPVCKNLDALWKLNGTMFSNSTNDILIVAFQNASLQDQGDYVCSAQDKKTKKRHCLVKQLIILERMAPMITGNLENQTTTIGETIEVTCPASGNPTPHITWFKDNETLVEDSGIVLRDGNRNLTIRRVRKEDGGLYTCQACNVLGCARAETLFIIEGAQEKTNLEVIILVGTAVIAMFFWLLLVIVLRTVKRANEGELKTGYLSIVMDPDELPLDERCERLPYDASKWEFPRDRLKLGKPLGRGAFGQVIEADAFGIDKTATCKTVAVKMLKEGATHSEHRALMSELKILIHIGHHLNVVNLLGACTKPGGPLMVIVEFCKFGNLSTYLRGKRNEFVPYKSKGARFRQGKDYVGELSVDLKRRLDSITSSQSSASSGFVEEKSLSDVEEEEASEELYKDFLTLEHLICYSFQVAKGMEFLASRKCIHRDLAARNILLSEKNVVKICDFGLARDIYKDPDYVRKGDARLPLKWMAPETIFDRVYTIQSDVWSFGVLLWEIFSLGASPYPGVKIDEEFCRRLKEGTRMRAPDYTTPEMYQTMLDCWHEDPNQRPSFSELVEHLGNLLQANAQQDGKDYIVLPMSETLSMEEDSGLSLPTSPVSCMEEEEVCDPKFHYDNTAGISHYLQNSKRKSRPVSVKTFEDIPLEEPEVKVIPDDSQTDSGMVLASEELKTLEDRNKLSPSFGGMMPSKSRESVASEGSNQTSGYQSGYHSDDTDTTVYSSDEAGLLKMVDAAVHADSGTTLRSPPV
# [23] = system: advanced RCC and poor prognosis; conditions: cited from earlier work; for progression-free survival / median overall survival: single agents; for progression-free survival: P=0.0001; for median overall survival: P=0.0078
# [24] = system: RCC and poor prognosis; conditions: cited from earlier work
# [25] = system: renal cell carcinoma cell lines; conditions: cited from earlier work
# [26] = target: VEGFR-2 (Homo sapiens, UniProt P35968); conditions: in vitro; cited from earlier work
# VEGFR-2 (Homo sapiens, UniProt P35968), sequence (P35968 20-1356, species assumed): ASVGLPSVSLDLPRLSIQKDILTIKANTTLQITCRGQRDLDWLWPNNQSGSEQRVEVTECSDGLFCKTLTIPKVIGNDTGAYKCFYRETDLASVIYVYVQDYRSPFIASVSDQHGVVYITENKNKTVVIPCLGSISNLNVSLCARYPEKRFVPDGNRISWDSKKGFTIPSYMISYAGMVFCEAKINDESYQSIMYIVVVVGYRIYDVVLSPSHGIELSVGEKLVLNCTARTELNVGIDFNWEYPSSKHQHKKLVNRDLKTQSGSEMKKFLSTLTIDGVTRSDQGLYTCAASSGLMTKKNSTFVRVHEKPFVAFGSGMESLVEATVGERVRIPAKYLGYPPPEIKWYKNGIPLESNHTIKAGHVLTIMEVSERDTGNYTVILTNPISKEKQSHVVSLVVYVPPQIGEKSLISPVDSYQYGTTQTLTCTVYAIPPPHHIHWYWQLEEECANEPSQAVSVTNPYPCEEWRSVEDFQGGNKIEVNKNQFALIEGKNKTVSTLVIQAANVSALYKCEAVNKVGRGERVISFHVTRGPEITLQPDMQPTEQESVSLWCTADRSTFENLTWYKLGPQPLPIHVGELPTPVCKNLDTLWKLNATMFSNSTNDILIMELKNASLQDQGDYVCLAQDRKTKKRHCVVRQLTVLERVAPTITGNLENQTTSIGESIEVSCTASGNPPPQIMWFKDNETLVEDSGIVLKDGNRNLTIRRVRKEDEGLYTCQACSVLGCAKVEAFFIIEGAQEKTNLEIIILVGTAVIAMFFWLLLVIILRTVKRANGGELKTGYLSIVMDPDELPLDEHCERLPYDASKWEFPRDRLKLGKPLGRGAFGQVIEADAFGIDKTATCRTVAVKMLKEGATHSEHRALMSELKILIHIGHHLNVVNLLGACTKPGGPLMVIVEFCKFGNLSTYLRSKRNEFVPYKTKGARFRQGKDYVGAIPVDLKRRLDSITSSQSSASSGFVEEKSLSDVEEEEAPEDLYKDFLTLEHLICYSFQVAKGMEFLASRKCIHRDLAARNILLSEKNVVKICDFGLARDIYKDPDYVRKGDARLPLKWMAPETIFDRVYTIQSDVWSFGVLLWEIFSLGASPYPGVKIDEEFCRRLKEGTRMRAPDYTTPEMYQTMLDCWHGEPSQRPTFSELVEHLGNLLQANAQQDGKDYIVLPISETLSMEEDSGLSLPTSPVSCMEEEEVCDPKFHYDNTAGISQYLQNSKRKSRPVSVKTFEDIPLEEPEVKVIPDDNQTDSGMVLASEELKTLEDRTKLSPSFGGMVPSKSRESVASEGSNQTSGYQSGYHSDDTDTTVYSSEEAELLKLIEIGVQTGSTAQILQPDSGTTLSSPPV
# [27] = system: renal cancer; conditions: bevacizumab arm = with interferon-alpha; comparator interferon-alpha alone; cited from earlier work
# [28] = 140 subjects with elevated LDH, log-rank p<0.005
# [29] = 264 subjects with normal LDH, log-rank p=0.514
compound,measurement,setting,value
"CNC(=O)c1ccccc1Sc1ccc2c(/C=C/c3ccccn3)n[nH]c2c1 [Axitinib, N-Methyl-2-[[3-[(E)-2-pyridin-2-ylethenyl]-1H-indazol-6-yl]sulfanyl]benzamide]",response,[1],good response
same,growth of breast cancer,[2],significantly inhibit growth
same,progression-free survival compared to sorafenib,[3],significantly extended progression-free survival
same,survival rates over Gemcitabine alone,[4],no evidence of improved survival rates
Cn1c(=O)n(-c2ccc(C(C)(C)C#N)cc2)c2c3cc(-c4cnc5ccccc5c4)ccc3ncc21 [BEZ235],levels of phosphorylated RPS6,[5],significantly reduce
same,mTORC1 kinase activity,[6],blocks
same,effectiveness at slowing tumor growth in tumors with high levels of hypoxia (HCT116) compared with low levels (786O),[7],not found to work better
same,mTORC2 kinase activity,[8],blocks
"Clc1ccc(Nc2nnc(Cc3ccncc3)c3ccccc23)cc1 [PTK787, N-(4-chlorophenyl)-4-(pyridin-4-ylmethyl)phthalazin-1-amine]",duration of stable disease,[9],2-6 months
same,patients with stable disease as the best response,[9]; six of eleven patients,55%
same,tumor growth as compared to control,"[10]; 50 mg/kg 5×/week p.o., p=0.1209",reduced the growth of the tumor
same,PFS HR,"[11]; CONFIRM 2 - High LDH, N 250",0.63
same,PFS HR,"[11]; CONFIRM 2 - Low LDH, N 605, P 0.58",0.95
same,PFS HR,"[12]; All CONFIRM 1 & 2 High LDH Patients, N 566",0.62
same,PFS HR,"[12]; All CONFIRM 1 & 2 Patients, N 2023",0.82
same,tumor burden as compared to control,"[13]; 50 mg/kg 5×/week p.o., p=0.7805",no difference in tumor burden
same,tumor burden as compared to control,"[13]; Erlotinib section, FIG. 5B, 1×/week p.o., p=0.8548",no difference in tumor burden
same,tumor burden as compared to control,"[13]; XL765 section, FIG. 4B, 30 mg/kg 5×/week p.o., p=0.7682",no difference in tumor burden
same,PFS HR,"[14]; CONFIRM 1 - High LDH, N 316, P 0.002",0.61
same,PFS HR,"[14]; CONFIRM 1 - Low LDH, N 852, P 0.43",0.93
same,effectiveness at slowing tumor growth in tumors with high levels of hypoxia (HCT116) compared with low levels (786O),[7],more effective
COc1cc(Nc2nc3ccccc3nc2NS(=O)(=O)c2ccc(NC(=O)c3ccc(C)c(OC)c3)cc2)cc(OC)c1 [XL765],tumor growth rate as compared to control,"[10]; 30 mg/kg 5×/week p.o., p=0.009",reduced the growth rate of the tumor
same,effectiveness at slowing tumor growth in tumors with high levels of hypoxia (HCT116) compared with low levels (786O),[7],more effective
C#Cc1cccc(Nc2ncnc3cc(OCCOC)c(OCCOC)cc23)c1 [erlotinib],progression free survival,[15],9.9 weeks
same,rate of one year survival,[15],31.2%
same,"response duration, median",[15],34.3 weeks
same,survival,[15],6.7 months
same,tumor response,[15],8.9%
same,tumor growth rate as compared to control,"[10]; 1×/week p.o., doses 40, 25, 10 mg/kg in the 3rd table, p=0.0224",reduced the growth rate of the tumor
same,progression free survival,[16]; erlotinib 150 mg orally once daily,2.8 months
same,overall survival,[16]; difference not statistically significant,12 weeks
same,progression free survival,[17],3.8 months
same,survival,[17],6.4 months
same,effectiveness at slowing tumor growth in tumors with high levels of hypoxia (HCT116) compared with low levels (786O),[7],more effective
same,JAK2V617F activity,[18],potent inhibitor
Nc1ccn([C@@H]2O[C@H](CO)[C@@H](O)C2(F)F)c(=O)n1 [gemcitabine],progression free survival,[17],3.5 months
same,survival,[17],6.0 months
Cc1ccc(Nc2nccc(N(C)c3ccc4c(C)n(C)nc4c3)n2)cc1S(N)(=O)=O.Cl [pazopanib],angiogenesis,[19],inhibited
same,growth of some human tumor xenografts,[20],inhibited
same,ligand-induced autophosphorylation of PDGFR-β,[21],inhibited
same,VEGF-induced VEGFR-2 phosphorylation,[22]; mouse lungs,inhibited
CNC(=O)c1cc(Oc2ccc(NC(=O)Nc3ccc(Cl)c(C(F)(F)F)c3)cc2)ccn1 [sorafenib],effectiveness at slowing tumor growth in tumors with high levels of hypoxia (HCT116) compared with low levels (786O),[7],not found to work better
CCN(CC)CCNC(=O)c1c(C)[nH]c(/C=C2\C(=O)Nc3ccc(F)cc32)c1C [sutent],effectiveness at slowing tumor growth in tumors with high levels of hypoxia (HCT116) compared with low levels (786O),[7],not found to work better
CO[C@H]1C[C@@H]2CC[C@@H](C)[C@@](O)(O2)C(=O)C(=O)N2CCCC[C@H]2C(=O)O[C@H]([C@H](C)C[C@@H]2CC[C@@H](OC(=O)C(C)(CO)CO)[C@H](OC)C2)CC(=O)[C@H](C)/C=C(\C)[C@@H](O)[C@@H](OC)C(=O)[C@H](C)C[C@H](C)/C=C/C=C/C=C/1C [temsirolimus],overall survival compared with interferon-alpha alone,[23]; combination of temsirolimus and interferon-alpha,did not result in a significant increase in overall survival
same,increase in median overall survival compared to interferon-alpha,"[23]; human, in vivo",49%
same,progression-free survival,[23],5.5 months
same,median overall survival,[23],10.9 months
same,survival,[24]; [28],6.9 months
same,survival,[24]; [29],11.7 months
same,effectiveness at slowing tumor growth in tumors with high levels of hypoxia (HCT116) compared with low levels (786O),[7],not found to work better
same,activity of mTOR,[25],inhibited
same,"levels of HIF-1 and HIF-2 alpha, and vascular endothelial growth factor",[25],reduced levels
Cediranib,angiogenesis,[19],inhibited
same,growth of some human tumor xenografts,[20],inhibited
same,ligand-induced autophosphorylation of VEGFR-2,[26],inhibited
same,VEGF-induced VEGFR-2 phosphorylation,[22]; mouse,inhibited
interferon-alpha,progression-free survival,[23],3.1 months
same,median overall survival,[23],7.3 months
same,survival,[24]; [28],4.2 months
same,survival,[24]; [29],10.4 months
same,patients with decreased tumor size,[27],12%
panitumumab: Anti-EGFR,effectiveness at slowing tumor growth in tumors with high levels of hypoxia (HCT116) compared with low levels (786O),[7],not found to work better
